According to US9296778B2, “3′,5′-cyclic phosphate prodrugs for HCV infection” (Idenix Pharmaceuticals, Inc., priority 2012, dated 2016):
pEC50: −log10 of the molar value. Where two headings read alike, the source gives them in different places.

Legend:
[1] = test system: Zluc cells
[2] = test system: HCV genotype 1b replicon; test: HCV Replicon Assay; format: cell-based; settings: Zluc cells (Huh-7-derived, HCV genotype 1b replicon, luciferase reporter), 72 hours; read-out: HCV Replicon EC50
Summary of the method: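 Zluc Huh-7 cells with HCV genotype 1b replicon and luciferase reporter treated with 5-fold dilutions (100 μM to 0.0000512 μM final) in duplicate, or at 1 and 10 μM. Luminescence read with ONE-glo; EC50 from dose-response fits, or % inhibition at the fixed concentrations.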

[3] = test system: Huh-7 cells; test: Release of active metabolite in Huh-7 cells; format: in vitro ADME, human; settings: 10 μM compound
Experimental: Huh-7 cells were plated in 1 mL culture medium (DMEM, containing glucose, L-glutamine and sodium pyruvate, 10% FBS, 100 IU/mL penicillin, 100 μg/mL streptomycin, 2 mM GlutaMAX, 1% MEM non-essential amino acids) at the concentration 0.8, 0.4 and 0.2 million cells per well on 6 well plates for 24, 48 and 72 hr treatment, respectively. Plated cells were incubated overnight at 37° C. in an incubator.
The following morning compounds was diluted to 20 μM from a stock solution in DMSO in fresh culture medium pre-warmed to 37° C. and 1 mL of the solution/well was added to cells. A final medium volume per well was 2.0 mL, Compound concentration in well was 10 μM and final DMSO concentration was 0.1%.
After 24, 48 or 72 hr, the medium was carefully removed and cell monolayers were washed twice with 2 mL ice-cold PBS per well. Following the last wash, all PBS was carefully removed and 1.0 mL of extraction solution (ice-cold 70% methanol) added. The plate was tightly covered with Parafilm, plastic plate cover and Parafilm again and an intracellular content was extracted at −20° C. for 24 hr.
After 24 hr extracts were transferred into polypropylene microfuge tubes and dried on a refrigerated centrivap concentrator. Dry residues were reconstituted in 250 μL of HPLC-grade water and centrifuged at 16,000×g for 10 min. Aliquots (100 μL each) of the supernatants were transferred into a 96 well plate and internal standard (4 ng/mL final concentration) was added as the internal standard (IS) for LC-MS/MS analysis.

[4] = test system: fresh human hepatocytes; test: Release of active metabolite in fresh human hepatocytes; format: in vitro ADME; settings: 10 μM compound; for FHH TP Cmax: fresh human hepatocytes; for FHH TP AUC: fresh human hepatocytes, 6, 24 and 48 hours
Summary of the method: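 Overnight-acclimatized hepatocytes (0.8 million cells/well human, 0.5 million mouse) incubated at 37 °C with 10 μM test compound (0.1% DMSO). Sampled at 6, 24, 48 h (human) or 1, 4, 8, 12, 24 h (mouse); cells washed, extracted in cold 70% methanol, intracellular content quantified by LC-MS/MS with internal standard.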

[5] = Stability in liver subcellular fractions (microsomes); format: in vitro ADME, human; settings: 10 μM, 1.0 mg/mL microsomal protein, NADPH, 60 min, percent unchanged test compound
Experimental: Stability of compounds were determined in subcellular fractions (microsomes) of human liver in duplicate for each matrix. Pooled liver microsomal proteins (1.0 mg/mL), suspended in incubation buffer (100 mM potassium phosphate, pH 7.4, 5 mM MgCl2, and 0.1 mM EDTA), were preincubated for 5 min at 37° C. with 10 μM of a test compound from a 10 mM stock solution in DMSO (final DMSO concentration was 0.1%); the reaction was initiated by the addition of NADPH (3 mM final concentration). At specific times (0 and 60 min), 0.1 mL samples were taken and the reaction terminated by the addition of 4 volumes of stop solution (acetonitrile with 500 ng/mL carbutamide as an internal standard). The samples were vortexed for 30 sec and then centrifuged at 16,000 g for 10 min. 100 μL of supernatants were transferred to 96 deep-well plates preloaded with 100 μL distilled water and analyzed after mixing by LC-MS/MS. The MS peak area ratio of the test compounds versus the internal standard was calculated and percent unchanged test compound over 60 minutes was calculated using this ratio.

[6] = Stability in mouse blood; format: in vitro ADME; settings: on ice, percent unchanged test compound
Summary of the method: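 Test compound at 0.5 μM final in whole blood, held on ice; sampled at 0, 0.5 and 1 hr in triplicate. Samples quenched with acetonitrile containing internal standard and analysed by LC-MS/MS; percent unchanged compound from peak area ratio to internal standard.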

[7] = test system: Zluc cells; test: cytotoxicity evaluation (CellTiter-Blue Cell Viability Assay); settings: read-out: HCV Replicon CC50; Zluc cells, CellTiter-Blue
[8] = Stability in fresh human whole blood; format: in vitro ADME; settings: 0.5 μM, percent unchanged test compound
Summary of the method: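 Test compound at 0.5 μM was incubated at 37 °C in fresh human K2EDTA whole blood, stored at 2–8 °C and used within 7 days, in triplicate. Samples taken at 0, 0.5, 1 and 2 h were quenched in cold acetonitrile containing internal standard and analysed by LC-MS/MS. Percent unchanged compound was derived from peak-area ratios.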

[9] = Stability in simulated intestinal fluid; format: in vitro ADME; settings: 100 μM, 2 hours at 37° C., percent of the peak area at time zero
Summary of the method: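 Compounds at 100 μM final, in duplicate, kept 2 h at 37° C in USP gastric fluid (pepsin) or intestinal fluid (pancreatin). Quenched with cold acetonitrile, supernatant analysed by C-18 HPLC, UV 252 nm. Remaining compound expressed as percent of time-zero peak area.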

[10] = biological target: T1, cathepsin A (CatA) (Homo sapiens, UniProt P10619); test: CatA hydrolysis assay; format: in vitro ADME
T1 construct: purchased R & D Systems (Minneapolis, Minn.)
T1 sequence (P10619 29-326 limits assumed): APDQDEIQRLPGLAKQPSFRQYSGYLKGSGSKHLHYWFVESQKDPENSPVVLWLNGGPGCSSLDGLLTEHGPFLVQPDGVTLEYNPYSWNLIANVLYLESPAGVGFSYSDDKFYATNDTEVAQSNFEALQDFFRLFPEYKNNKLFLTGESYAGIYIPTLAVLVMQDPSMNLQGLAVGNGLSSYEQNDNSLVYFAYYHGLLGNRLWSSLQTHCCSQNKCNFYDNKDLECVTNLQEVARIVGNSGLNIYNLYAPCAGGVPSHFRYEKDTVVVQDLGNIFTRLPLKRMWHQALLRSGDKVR
T1 sequence (P10619 327-480 limits assumed): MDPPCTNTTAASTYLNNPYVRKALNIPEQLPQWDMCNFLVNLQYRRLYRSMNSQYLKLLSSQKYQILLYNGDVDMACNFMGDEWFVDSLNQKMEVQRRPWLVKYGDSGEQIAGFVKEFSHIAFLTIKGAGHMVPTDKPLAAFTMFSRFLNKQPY
Experimental: CatA, cathepsin L (CatL) and CES1 were purchased from R & D Systems (Minneapolis, Minn.). Prior to the enzymatic hydrolysis reactions, CatA was activated according to the manufacturer's instruction. Briefly, CatA (0.05 μg/μL) was incubated with CatL (0.005 μg/μL) for 30 min at 37° C. in 25 mM MES pH 6.0 containing 5 mM DTT. The reaction was stopped by addition of the CatL specific inhibitor E64 (10 μM).
The CatA assay was performed at 37° C. The reaction mixture contained 25 mM MES buffer pH 6.0, 100 mM NaCl, 4 mM DTT and 100 μM of the compound. The reaction was started by addition of the activated CatA enzyme to a final concentration of 0.005 μg/μL. One hundred-μL aliquots were taken after 0.5 min, 3 hrs and 18 hrs of incubation. Reactions were stopped by mixing the sample with an equal volume of ice-cold methanol, and were loaded on a HPLC for analysis.
(§1) Samples were analyzed by HPLC using 5μ C-18, 4.6×250 mm Phenomenex® Columbus column (Phenomenex USA, CA). The mobile phase consisted of buffer A (25 mM potassium phosphate with 5 mM tetrabutylammonium dihydrogen phosphate pH 6.3) and buffer B (100% methanol).

[11] = biological target: T2, carboxylesterase 1 (CES1) (Homo sapiens, UniProt P23141); test: CES1 hydrolysis assay; format: in vitro ADME
T2 construct: purchased R & D Systems (Minneapolis, Minn.)
T2 sequence (P23141 18-567): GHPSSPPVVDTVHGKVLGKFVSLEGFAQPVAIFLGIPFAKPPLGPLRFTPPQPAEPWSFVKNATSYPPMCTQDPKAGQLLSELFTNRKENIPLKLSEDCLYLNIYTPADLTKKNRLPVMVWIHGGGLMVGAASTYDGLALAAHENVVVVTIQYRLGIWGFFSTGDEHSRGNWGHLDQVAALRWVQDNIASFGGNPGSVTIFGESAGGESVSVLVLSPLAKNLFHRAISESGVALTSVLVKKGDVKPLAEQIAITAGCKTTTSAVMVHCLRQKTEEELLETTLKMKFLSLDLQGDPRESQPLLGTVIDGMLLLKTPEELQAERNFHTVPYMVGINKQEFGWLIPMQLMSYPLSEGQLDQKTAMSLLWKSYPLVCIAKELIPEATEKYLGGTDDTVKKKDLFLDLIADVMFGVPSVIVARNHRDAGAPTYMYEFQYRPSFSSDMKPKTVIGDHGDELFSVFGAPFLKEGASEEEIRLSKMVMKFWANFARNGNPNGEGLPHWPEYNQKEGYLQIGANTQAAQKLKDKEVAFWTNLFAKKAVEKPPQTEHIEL
Experimental: CES1 assay was performed at 37° C. in the reaction mixture containing 50 mM Tris/HCl buffer pH 7.5 and 100 μM of the compound. Reaction was started by addition of the CES1 to the final concentration 0.01 μg/mL. 100 μL aliquots were taken after 0.5 min, 3 hrs and 21 hrs of the incubation and the reaction was stopped by mixing with 100 μl of the ice-cold methanol prior to HPLC analysis.
as §1

[12] = Stability in simulated gastric fluid; format: in vitro ADME; settings: 100 μM, 2 hours at 37° C., percent of the peak area at time zero
Experimental: Simulated gastric and intestinal fluids containing pepsin and pancreatin respectively were prepared according to the U.S. Pharmacopoeia USP291 procedure (www.pharmacopeia.cn/v29240/usp29nf24s0_ris1s126.html). Compounds (final concentration 100 μM) were incubated in duplicate in the appropriate fluid for 2 hours at 37° C. The samples were quenched with 200 μl cold acetonitrile, vortexed for 30 seconds and then centrifuged at 16,100 g for 10 min. The supernatants were analyzed by HPLC on a C-18 column with UV detection at 252 nm. The time 0 samples were prepared by adding SGF or SIF fluid to the quenching solvent followed by the test compound. Stability of the compounds was determined by peak area of the test compounds after incubation and calculated as percent of the peak area observed at time zero.

SMILES: CCOc1nc(N)nc2c1ncn2[C@@H]1O[C@@H]2COP(=O)(OCCSSC(C)(C)C)O[C@H]2[C@@]1(C)O (single isomer, unassigned; diastereomer 1) [Compound 23 Diastereomer 1]
- CC50 [1]: < 50000 nM
- pEC50 [2]: > 6.60

SMILES: CCOc1nc(N)nc2c1ncn2[C@@H]1O[C@@H]2COP(=O)(OCCSC(=O)C(C)(C)CO)O[C@H]2[C@@]1(C)OC(C)=O (single isomer, unassigned; diastereomer 2) [Compound 16 Diastereomer 2]
- CC50 [1]: < 50000 nM
- pEC50 [2]: > 6.60

SMILES: CCOC(=O)CCCOP1(=O)OC[C@H]2O[C@@H](n3cnc4c(OC)nc(N)nc43)[C@](C)(O)[C@@H]2O1 (single isomer, unassigned; diastereomer 1) [Compound 25 Diastereomer 1]
- Huh-7 TP (24 hr) ([3]; 24 hr): 25
- Huh-7 TP (48 hr) ([3]; 48 hr): 28
- Huh-7 TP (72 hr) ([3]; 72 hr): 36
- Huh-7 TP AUC ([3]; Huh-7 cells): 1697 pmol/mill cells
- FHH TP Cmax [4]: 1137 pmol/mill cells
- FHH TP AUC [4]: 2245 pmol · hr/mill cells

SMILES: CCOc1nc(N)nc2c1ncn2C1OC2COP(=O)(Oc3ccc(CC(NC(=O)OC)C(=O)OC(C)C)cc3)OC2C1(C)F (single isomer, unassigned; diastereomer 1) [Compound 13 Diastereomer 1]
- Stability HLM (1 hr) [5]: 0.4%
- Stability WB_Mouse (ice; 1 hr) [6]: 1%
- pEC50 [2]: > 6.60
- FHH TP Cmax [4]: 44 pmol/mill cells
- FHH TP AUC [4]: 1632 pmol · hr/mill cells
- CC50 [7]: > 50000 nM
- Stability WB_Human (37° C.; 2 hr) [8]: 29%
- Stability SIF [9]: 72%

SMILES: CC(C)OC(=O)[C@H](C)N[P@@](=O)(OC[C@H]1O[C@@H](n2ccc(=O)[nH]c2=O)[C@](C)(F)[C@@H]1O)Oc1ccccc1 [PSI-7076]
- hydrolysis by CatA (in words) [10]: hydrolyzed
- hydrolysis by CES1 (in words) [11]: hydrolyzed

SMILES: CCOC(=O)COP1(=O)OC[C@H]2O[C@@H](n3cnc4c(OCC)nc(N)nc43)[C@](C)(F)[C@@H]2O1 (single isomer, unassigned; diastereomer 1) [Compound 7 Diastereomer 1]
- Stability HLM (1 hr) [5]: 0.5%
- Stability WB_Mouse (ice; 1 hr) [6]: 1%
- pEC50 [2]: > 6.60
- Stability SGF [12]: 87%
- FHH TP Cmax [4]: 31 pmol/mill cells
- FHH TP AUC [4]: 377 pmol · hr/mill cells
- CC50 [7]: > 50000 nM
- Stability WB_Human (37° C.; 2 hr) [8]: 25%
- Stability SIF [9]: 50%

SMILES: CCOc1nc(N)nc2c1ncn2C1OC2COP(=O)(OCC(NC(=O)OC)C(C)(C)C)OC2C1(C)F (single isomer, unassigned; diastereomer 1) [Compound 10 Diastereomer 1]
- CC50 [1]: > 50000 nM
- pEC50 [2]: 6.00 to 6.60
